Key:
neuronal cells = experiment: WST-1 cellular toxicity assay (Roche); assay type: cell-based
GAS5 [1] = experiment: GAS5 stabilization in HT22 cells over-expressing UPF1, SYBR Green qPCR; assay type: cell-based, mouse; conditions: pre-treated 10 nM for 1 hour, then UPF1 transfection for 24 hours
Protocol: As the compound(s) were designed to bind to GAS5 such that it would disrupt binding to UPF1, the compound(s) ability to bind to GAS5 was examined. RNA-EMSA (REMSA) was performed as previously described. Briefly, GAS5 was cloned in TOPO vector which has the T7 promoter. In vitro transcription assay was performed with biotin-label using RiboScribe kit using T7 RNA polymerase at 37° C. for 2 h in the presence of nucleotides, RNase inhibitor, and 5× transcription buffer. 0.1 nM of transcribed, biotin-labeled GAS5 was incubated with 10 nM NPG567 in presence of 10U yeast tRNA and 10 units of RNase inhibitor in a final volume of 10 μl of RNA shift buffer for 20 min at room temperature, detected using Biotin Chromogenic Detection kit (ThermoFisher). […] Next, it was evaluated whether NPG567 could stabilize GAS5 in HT22 cells over-expressing UPF1 (from Addgene). UPF1 was transiently transfected for 24 h (UPF oe) or pre-treated with NPG567 (10 nM) for 1 hour followed by transfection of UPF1 for 24 hours. GAS5 levels were measured using SYBR Green qPCR. […]
Methods in brief: Cell culture: Immortalized clonal mouse hippocampal cell line (HT22) (obtained from Salk Institute) and cultured in DMEM+10% FBS. […] The cells are checked for viability and counted and plated into T-25 flasks in neurobasal media with B27 supplement. […]

GAS5 [2] = experiment: Binding of side-chain derivatives to GAS5 (preliminary data)
DM adipocytes = experiment: Cell viability / toxicity in DM adipocytes; assay type: cell-based, human; conditions: 20 nM, 24 hours

SMILES	cellular toxicity (neuronal cells; WST-1 assay (Roche))	toxicity to cells (neuronal cells; in neurons)	GAS5 levels with UPF1 over-expression (GAS5 [1])	binding to GAS5 (GAS5 [2])	cell toxicity in DM adipocytes (DM adipocytes)
NCCCC[C@H]1CN(C(=O)CCc2ccccc2)CC(=O)N[C@@H](CCC(=O)O)CN(CC(N)=O)C(=O)CCSCc2ccc(cc2)C(=O)N[C@@H](CCC(=O)O)CN(C(=O)CCC(=O)O)CC(=O)N[C@@H](CCCCN)CN(C(=O)CCCN)CC(=O)N1 [NPG567]	does not cause cellular toxicity	not toxic to cells	increases GAS5 levels	bound efficiently to GAS5	–
CC(C)C[C@H]1CN(C(=O)CC2CC2)CC(=O)N[C@@H](CCCCN)CN(C(=O)CCc2ccccc2)CC(=O)N[C@@H](Cc2ccccc2)CN(CC(N)=O)C(=O)CCSCc2ccc(cc2)C(=O)N[C@@H](Cc2ccccc2)CN(C(=O)CC2CC2)CC(=O)N1 [Formula G5-1397]	–	–	–	–	without causing cell toxicity

Source: US11214835B1, “Methods and compositions for diagnosis and management of neurodegerative diseases” (UNIVERSITY OF SOUTH FLORIDA, priority 2017, dated 2022)
